From article PMC8172068 (PLoS ONE, 2021)

Target: Acinetobacter baumannii rAcpA (Acinetobacter baumannii, UniProt A0ABX6CG12)
Assay: Hydrolysis of various phosphorylated compounds by rAcpA (released phosphate)
Assay type: biochemical
Conditions: phosphate released relative to paranitrophenol released from PNPP x100
Experimental: All incubations were carried out for 30 minutes at 37 °C after which time reactions were placed in an ice slurry for 3 minutes followed by addition of enzyme to the respective blanks and reactions were terminated by heating at 65 °C for 10 minutes followed by immersion in an ice slurry for 3 minutes. Released phosphate was determined by addition of 1.0 mL BIOMOL GREEN phosphate reagent (Enzo Life Sciences), and monitored at 620 nm using a Genesys 10 UV Scanning Spectrophotometer (Thermo Scientific). Paranitrophenol was monitored at 405 nm following addition of 1.7 mL 0.5 M Glycine buffer, pH 10. Following subtraction of blank values, paranitrophenol and released phosphate were quantitated using paranitrophenol and phosphate standard curves, respectively. […] Specific activity is expressed as nmoles paranitrophenol or free phosphate liberated mg^-1s^-1.

[1] = compound at 2.0 mM final concentration
[2] = compound at 0.1 mM final concentration

Row | Molecule | Relative Activity [1] | other results
1 | NC(=O)c1ccc[n+]([C@@H]2O[C@H](COP(=O)([O-])OP(=O)(O)OC[C@H]3O[C@@H](n4cnc5c(N)ncnc54)[C@H](OP(=O)(O)O)[C@@H]3O)[C@@H](O)[C@H]2O)c1 [NADP^+] | 3.7% | 
2 | Nc1ncnc2c1ncn2[C@@H]1O[C@H](COP(=O)(O)O)[C@@H](O)[C@H]1O [AMP] | 27.0% | 
3 | T-S-T-E-P-Q-pY-Q-P-G-E-N-L [Tyrosine Phosphopeptide] |  | Relative Activity [2]: 20.0%; Relative Activity (compound at 0.1 mM final concentration, listed as tyrosine phosphopeptide): 20%
4 | Cc1ncc(COP(=O)(O)O)c(C=O)c1O [Pyridoxal Phosphate] | 35.3% | 
5 | Cc1ncc(C[n+]2csc(CCOP(=O)(O)O)c2C)c(N)n1 [Thiamine Monophosphate] | 12.3% | 
6 | N[C@@H](Cc1ccc(OP(=O)(O)O)cc1)C(=O)O [Phospho-L-Tyrosine] | 31.5% | 
7 | Nc1ncnc2c1ncn2[C@@H]1O[C@H](COP(=O)(O)OP(=O)(O)OP(=O)(O)O)[C@@H](O)[C@H]1O [ATP] | 1.1% | 
8 | C[N+](C)(C)CCOP(=O)(O)O [Phosphocholine] | 2.0% | 
9 | O=C[C@H](O)[C@@H](O)[C@H](O)[C@H](O)COP(=O)(O)O [Glucose-6-Phosphate] | 2.7% | 
10 | C=C(OP(=O)(O)O)C(=O)O [PEP] | 7.6% | 
11 | N[C@@H](COP(=O)(O)O)C(=O)O [Phospho-L-Serine] | 0.4% | 
12 | Cc1ncc(C[n+]2csc(CCO[P@](=O)(O)OP(=O)(O)O)c2C)c(N)n1 [Thiamine Pyrophosphate] | 3.6% | 
13 | O=P(O)(O)O[C@H]1O[C@H](CO)[C@H](O)[C@H](O)[C@H]1O [Galactose-1-Phosphate] | 0.0% | Relative Activity (compound at 2.0 mM final concentration, listed as galactose-1-phosphate): not hydrolyzed
14 | K-R-pT-I-R-R [Threonine Phosphopeptide] |  | Relative Activity [2]: 0.0%; Relative Activity (compound at 0.1 mM final concentration, listed as threonine phosphopeptide): 0%
15 | NCCOP(=O)(O)O [Phosphoethanolamine] | 1.8% | 
16 | Cc1cn([C@H]2C[C@H](O)[C@@H](COP(=O)(O)O)O2)c(=O)[nH]c1=O [TMP] | 27.3% | 
17 | Nc1ncnc2c1ncn2[C@@H]1O[C@H](CO)[C@@H](OP(=O)(O)O)[C@H]1O [3’-AMP] | 63.0% | 
18 | O=c1[nH]cnc2c1ncn2[C@@H]1O[C@H](COP(=O)(O)OP(=O)(O)O)[C@@H](O)[C@H]1O [IDP] | 0.5% | 
19 | O=c1ccn([C@@H]2O[C@H](COP(=O)(O)OP(=O)(O)O)[C@@H](O)[C@H]2O)c(=O)[nH]1 [UDP] | 1.8% | 
20 | Cc1cn([C@H]2C[C@H](O)[C@@H](COP(=O)(O)OP(=O)(O)O)O2)c(=O)[nH]c1=O [TDP] | 3.0% | 
21 | NC(=O)C1=CN([C@@H]2O[C@H](COP(=O)(O)OP(=O)(O)OC[C@H]3O[C@@H](n4cnc5c(N)ncnc54)[C@H](OP(=O)(O)O)[C@@H]3O)[C@@H](O)[C@H]2O)C=CC1 [NADPH] | 3.5% | 
22 | Nc1ccn([C@@H]2O[C@H](COP(=O)(O)O)[C@@H](O)[C@H]2O)c(=O)n1 [CMP] | 4.1% | 
23 | O=P(O)(O)OC(CO)CO [β-Glycerol Phosphate] | 40.0% | 
24 | O=P(O)(O)O[C@H]1[C@H](OP(=O)(O)O)[C@@H](OP(=O)(O)O)[C@H](OP(=O)(O)O)[C@@H](OP(=O)(O)O)[C@H]1OP(=O)(O)O [Phytic acid] | 0.0% | Relative Activity (compound at 2.0 mM final concentration, listed as phytic acid): not hydrolyzed
25 | O=C(COP(=O)(O)O)[C@@H](O)[C@H](O)[C@H](O)COP(=O)(O)O [Fructose-1,6-bisphosphate] | 6.6% | 
26 | Nc1nc2c(ncn2[C@@H]2O[C@H](COP(=O)(O)OP(=O)(O)O)[C@@H](O)[C@H]2O)c(=O)[nH]1 [GDP] | 1.0% | 
